# Where two headings read alike, the source gives them in different places.
# Test system: primary rat mixed cortical cells
# Assay: In vitro myelination assay (MBP positive myelin strands, fold myelin pixels above background)
# Assay type: cell-based
# Conditions: Rattus norvegicus; for fold induction at 1 µM: 1.0 μM compound; for fold induction at 10 µM: 10.0 μM compound
# Method in brief: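 P1 rat mixed cortical cultures (neurons, OPCs, oligodendrocytes, astrocytes, microglia) grown 14 days at 37 °C with compound, half-medium refreshed with compound on days 6 and 10. Fixed cells stained for MBP; MBP-positive myelin strand pixels per well quantified by automated imaging, reported as fold over no-compound baseline at 1.0 and 10.0 μM.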
# [1] = relative to baseline of no added compound, read-out: Fold myelin pixels above background
# [2] = read-out: Fold myelin pixels above background relative to baseline of no added compound
Compound,fold induction at 1 µM [1],fold induction at 10 µM [1],fold induction at 1 µM [2],fold induction at 10 µM [2]
"Cc1ccc(-n2cnc(Nc3cc(F)cc(N4CCN(C5COC5)CC4)c3)n2)cc1F [Compound 779, 1-(3-fluoro-4-methyl-phenyl)-N-[3-fluoro-5-[4-(oxetan-3-yl)piperazin-1-yl]phenyl]-1,2,4-triazol-3-amine]",1 to 10,1 to 10,,
"Cc1cc(Nc2ncn(-c3ccc(F)c(C)c3)n2)cc(N2CCN(C3COC3)CC2)c1 [Compound 780, 1-(4-fluoro-3-methyl-phenyl)-N-[3-methyl-5-[4-(oxetan-3-yl)piperazin-1-yl]phenyl]-1,2,4-triazol-3-amine]",1 to 10,1 to 10,,
"COc1ccc(-n2cnc(Nc3cc(F)cc(N4CCN(C5COC5)CC4)c3)n2)cc1F [Compound 781, 1-(3-fluoro-4-methoxy-phenyl)-N-[3-fluoro-5-[4-(oxetan-3-yl)piperazin-1-yl]phenyl]-1,2,4-triazol-3-amine]",1 to 10,≤ 1,,
"COc1c(F)cc(-n2cnc(Nc3cc(C)cc(N4CC(N5CCOCC5)C4)c3)n2)cc1F [Compound 782, 1-(3,5-difluoro-4-methoxy-phenyl)-N-[3-methyl-5-(3-morpholinoazetidin-1-yl)phenyl]-1,2,4-triazol-3-amine]",10 to 100,1 to 10,,
"Fc1cc(Nc2ncn(-c3ccnc(F)c3)n2)cc(N2CCN(C3COC3)CC2)c1 [Compound 783, N-[3-fluoro-5-[4-(oxetan-3-yl)piperazin-1-yl]phenyl]-1-(2-fluoro-4-pyridyl)-1,2,4-triazol-3-amine]",≤ 1,1 to 10,,
"Fc1ccc(-n2cnc(Nc3cc(Cl)cc(N4CC(N5CCOCC5)C4)c3)n2)cc1F [Compound 784, N-[3-chloro-5-(3-morpholinoazetidin-1-yl)phenyl]-1-(3,4-difluorophenyl)-1,2,4-triazol-3-amine]",10 to 100,10 to 100,,
"Clc1cc(Nc2ncn(-c3ccccn3)n2)cc(N2CC(N3CCOCC3)C2)c1 [Compound 785, N-[3-chloro-5-(3-morpholinoazetidin-1-yl)phenyl]-1-(2-pyridyl)-1,2,4-triazol-3-amine]",10 to 100,100 to 1000,,
"COCC1CCCN(c2cc(C)cc(Nc3ncn(-c4cc(F)cc(F)c4)n3)n2)C1 (stereo not drawn) [Compound 786, N-[1-(3,5-difluorophenyl)-1,2,4-triazol-3-yl]-6-[3-(methoxymethyl)-1-piperidyl]-4-methyl-pyridin-2-amine]",1 to 10,≤ 1,,
"Cc1cc(Nc2ncn(-c3cc(F)cc(F)c3)n2)cc(N2CC(N3CC4CC3CO4)C2)c1 (stereo not drawn) [Compound 788, 1-(3,5-difluorophenyl)-N-[3-methyl-5-[3-(2-oxa-5-azabicyclo[2.2.1]heptan-5-yl)azetidin-1-yl]phenyl]-1,2,4-triazol-3-amine]",,,10 to 100,1 to 10
"CNC(=O)c1cc(Nc2ncn(-c3ccc(F)c(F)c3)n2)nc(N2CCN(C3COC3)CC2)c1 [Compound 789, 2-[[1-(3,4-difluorophenyl)-1,2,4-triazol-3-yl]amino]-N-methyl-6-[4-(oxetan-3-yl)piperazin-1-yl]pyridine-4-carboxamide]",,,1 to 10,≤ 1
"Cc1cc(Nc2ncn(-c3cc(F)cc(F)c3)n2)c(F)c(N2CC(N3CCOCC3)C2)c1 [Compound 790, 1-(3,5-difluorophenyl)-N-[2-fluoro-5-methyl-3-(3-morpholinoazetidin-1-yl)phenyl]-1,2,4-triazol-3-amine]",,,10 to 100,10 to 100
"Cc1cc(Nc2ncn(-c3cc(F)cc(F)c3)n2)cc(N2CC(NCCO)C2)c1 [Compound 791, 2-[[1-[3-[[1-(3,5-difluorophenyl)-1,2,4-triazol-3-yl]amino]-5-methyl-phenyl]azetidin-3-yl]amino]ethanol]",,,10 to 100,≤ 1
"N#Cc1cc(Nc2ncn(-c3cccc(F)c3)n2)cc(N2CCN(C3COC3)CC2)c1 [Compound 793, 3-[[1-(3-fluorophenyl)-1,2,4-triazol-3-yl]amino]-5-[4-(oxetan-3-yl)piperazin-1-yl]benzonitrile]",,,1 to 10,≤ 1
"Fc1cc(Nc2ncn(-c3cccc(C(F)F)c3)n2)cc(N2CCN(C3COC3)CC2)c1 [Compound 794, 1-[3-(difluoromethyl)phenyl]-N-[3-fluoro-5-[4-(oxetan-3-yl)piperazin-1-yl]phenyl]-1,2,4-triazol-3-amine]",,,1 to 10,≤ 1
"COCC1CCN(c2cc(C(F)F)cc(Nc3ncn(-c4cccc(C(F)(F)F)c4)n3)n2)CC1 [Compound 795, 4-(difluoromethyl)-6-[4-(methoxymethyl)-1-piperidyl]-N-[1-[3-(trifluoromethyl)phenyl]-1,2,4-triazol-3-yl]pyridin-2-amine]",,,1 to 10,1 to 10
"Cc1cc(Nc2ncn(-c3cc(F)cc(F)c3)n2)cc(NC2CC(N3CCOCC3)C2)c1 (stereo not drawn) [Compound 797, N3-[1-(3,5-difluorophenyl)-1,2,4-triazol-3-yl]-5-methyl-N1-(3-morpholinocyclobutyl)benzene-1,3-diamine]",,,1 to 10,≤ 1
"Cc1cc(C#CC2CC2)cc(Nc2ncn(-c3cc(F)cc(F)c3)n2)c1 [Compound 798, N-[3-(2-cyclopropylethynyl)-5-methyl-phenyl]-1-(3,5-difluorophenyl)-1,2,4-triazol-3-amine]",,,1 to 10,1 to 10
"Cc1cc(Nc2ncn(-c3ccc(F)c(F)c3)n2)cc(NC2CC(N3CCOCC3)C2)c1 (stereo not drawn) [Compound 799, N3-[1-(3,4-difluorophenyl)-1,2,4-triazol-3-yl]-5-methyl-N1-(3-morpholinocyclobutyl)benzene-1,3-diamine]",,,10 to 100,≤ 1
"Cc1cc(Nc2ncn(-c3cc(F)cc(F)c3)n2)nc(C2CCN(C3COC3)CC2)c1 [Compound 801, N-[1-(3,5-difluorophenyl)-1,2,4-triazol-3-yl]-4-methyl-6-[1-(oxetan-3-yl)-4-piperidyl]pyridin-2-amine]",,,1 to 10,1 to 10
"CCc1cc(Nc2ncn(-c3ccc(F)cc3)n2)cc(N2CCN(C3(C)COC3)CC2)c1 [Compound 802, N-[3-ethyl-5-[4-(3-methyloxetan-3-yl)piperazin-1-yl]phenyl]-1-(4-fluorophenyl)-1,2,4-triazol-3-amine]",,,10 to 100,≤ 1
"Fc1cc(Nc2ncn(-c3ccc(F)c(F)c3)n2)cc(N2CCN(C3COC3)CC2)c1 [Compound 803, 1-(3,4-difluorophenyl)-N-[3-fluoro-5-[4-(oxetan-3-yl)piperazin-1-yl]phenyl]-1,2,4-triazol-3-amine]",,,10 to 100,≤ 1
"Fc1cc(F)cc(-n2cnc(Nc3cc(C(F)F)cc(N4CC(N5CCOCC5)C4)c3)n2)c1 [Compound 804, N-[3-(difluoromethyl)-5-(3-morpholinoazetidin-1-yl)phenyl]-1-(3,5-difluorophenyl)-1,2,4-triazol-3-amine]",,,10 to 100,≤ 1
"CC(=O)N1CCC(Oc2cc(C)cc(Nc3ncn(-c4cc(F)cc(F)c4)n3)c2)CC1 [Compound 805, 1-[4-[3-[[1-(3,5-difluorophenyl)-1,2,4-triazol-3-yl]amino]-5-methyl-phenoxy]-1-piperidyl]ethanone]",,,10 to 100,1 to 10
"Fc1ccc(-n2cnc(Nc3cc(C(F)F)cc(N4CCN(C5COC5)CC4)n3)n2)cc1 [Compound 806, 4-(difluoromethyl)-N-[1-(4-fluorophenyl)-1,2,4-triazol-3-yl]-6-[4-(oxetan-3-yl)piperazin-1-yl]pyridin-2-amine]",,,1 to 10,≤ 1
"COCC1CCN(c2cc(C(F)(F)F)cc(Nc3ncn(-c4cccc(C(F)F)c4)n3)n2)CC1 [Compound 807, N-[1-[3-(difluoromethyl)phenyl]-1,2,4-triazol-3-yl]-6-[4-(methoxymethyl)-1-piperidyl]-4-(trifluoromethyl)pyridin-2-amine]",,,1 to 10,1 to 10
"Cc1cc(Nc2ncn(-c3cc(F)cc(F)c3)n2)cc(N2CC(N3CCCOCC3)C2)c1 [Compound 808, 1-(3,5-difluorophenyl)-N-[3-methyl-5-[3-(1,4-oxazepan-4-yl)azetidin-1-yl]phenyl]-1,2,4-triazol-3-amine]",,,10 to 100,≤ 1
"Cc1cc(Nc2ncn(-c3cc(F)cc(F)c3)n2)cc(N2CCN(CCN(C)C)CC2)c1 [Compound 809, 1-(3,5-difluorophenyl)-N-[3-[4-[2-(dimethylamino)ethyl]piperazin-1-yl]-5-methyl-phenyl]-1,2,4-triazol-3-amine]",,,1 to 10,≤ 1
"Cc1cc(Nc2ncn(-c3cc(F)cc(F)c3)n2)c(F)c(NC2CCOCC2)c1 [Compound 810, N3-[1-(3,5-difluorophenyl)-1,2,4-triazol-3-yl]-2-fluoro-5-methyl-N1-tetrahydropyran-4-yl-benzene-1,3-diamine]",,,1 to 10,1 to 10
"Cc1c(Nc2ncn(-c3ccccn3)n2)cc(N2CC(N3CCOCC3)C2)cc1OC(C)C [Compound 811, N-[3-isopropoxy-2-methyl-5-(3-morpholinoazetidin-1-yl)phenyl]-1-(2-pyridyl)-1,2,4-triazol-3-amine]",,,1 to 10,10 to 100
"Cc1cc(Nc2ncn(-c3cc(F)cc(F)c3)n2)cc(OCCN2CCOCC2)c1 [Compound 812, 1-(3,5-difluorophenyl)-N-[3-methyl-5-(2-morpholinoethoxy)phenyl]-1,2,4-triazol-3-amine]",,,10 to 100,10 to 100

# From patent US10766869B2, “Triazoles for the treatment of demyelinating dieases” (Vertex Pharmaceuticals Incorporated, priority 2015, dated 2020)
